Earlier results on one compound are cited in US7816357B2, “Azabicyclic heterocycles as cannabinoid receptor modulators” (Bristol-Myers Squibb Company, priority 2003, dated 2010).

The test system of the data set is human subjects. The following applies: 16 week trial period, published Phase IIb data.

Regarding `Cc1c(C(=O)NN2CCCCC2)nn(-c2ccc(Cl)cc2Cl)c1-c1ccc(Cl)cc1` [SR-141716], the “body weight in human subjects” value was “dose-dependently reduced body weight”.
